We go through one substance from patent US20040014653A1, “Peptide composition” (priority 2000, published 2004).

This assay has as its system Human keratinocytes (HatKat). The assay can be described thus: Growth of keratinocytes, cell count in Coulter counter after three days. The assay is classed as cell-based. As for the experimental part:
Human keratinocytes (HatKat) were grown in keratinocyte growth medium (TCS Cellworks Ltd.) until 20% confluence. Then, in the same medium, the keratinocytes were grown for three days with 0.5% foetal calf serum (FCS), at which point the cells were counted in a Coulter® counter. The cell numbers obtained are set out in Table 3 below.

Consider “EGF: epidermal growth factor, comparator growth factor in keratinocyte growth test”, for which the “increase in the growth of keratinocytes (in words)” value (10 ng/mi EGF versus medium with 0.5% FCS) is “relatively modest increase”. Further, the Number of cells (Medium with 0.5% FCS + 10 ng/ml EGF, three days) is given as 29,356.
